Common to all, as to format: cell-based
Assay [1] has as its system human peripheral blood T lymphocytes. The experiment in a line: Migration assay with or without concentration gradient.
In assay [2] the test system is human peripheral blood T cells. In words: Naloxone inhibition of T cell migration to stimuli. Particulars: for Effect of naloxone on specific migration (percent response): naloxone-treated/nontreated x 100%; for Specific migration with naloxone / Specific migration without naloxone: spontaneous locomotion subtracted.
Assay [3] concerns human peripheral blood T lymphocytes. The experiment in a line: T cell migration assay in microchemotaxis chamber. To be noted: peptides at 10 -5 M in lower wells, 1.5 h at 37C, Fig. 3; Dunnett's test.
[4] abbreviates: donor 5, stimulus at 10^-5 M, naloxone 10^-5 M.
The mark [5] stands for this setting: doses between 10-13 and 10^-9 M, migration only when a gradient existed.
The mark [6] stands for this setting: donor 4, stimulus at 10^-9 M, naloxone 10^-5 M.

We go through ten molecules from article PMC2187893 (The Journal of Experimental Medicine, 1990).

Consider “/3-END: purified human beta-endorphin from Calbiochem-Behring Corp.; endogenous opioid neurohormone (YGGFMTSEKSQTPLVTLFKNAIIKNAYKKGE; Beta-endorphin; UniProt P01189 237-267, looked up)”, for which, in assay [1] (10-9, 10^-7 and 10^-5 M, single donor, Fig. 2, p >0.05, NS), the “T cell migration without gradient (stimulus in upper and lower chambers)” value was “equivalent to the spontaneous locomotion”. Moreover, the “type of locomotion stimulated” value in assay [1] (beta-END, Fig. 2, 10^-9 to 10^-5 M) is on record as “chemotactic”.
Consider “Tyr-Gly-Gly-Phe-Leu [LEU-ENK, leucine-enkephalin]”, for which, in assay [2] (setting [4]), the “Effect of naloxone on specific migration (percent response)” value is listed as 18.4% and the “Specific migration with naloxone” value worked out at 582. Further, the “Specific migration without naloxone” value in assay [2] (donor 5, stimulus at 10^-5 M) was 3,171. Besides, in assay [1] (setting [5]), the “type of locomotion stimulated” value is recorded as “chemotactic”. Further, in assay [3], the “T cell migration response compared with spontaneous locomotion” value was “stimulatory”.
For “[n-Ala-2,N-Me-Phe4Met(o)4-01]-enkephalin [FK 33-824]”, in assay [3], the “T cell migration response compared with spontaneous locomotion” value was “greater then spon- taneous locomotion”.
In the case of “Tyr-Gly-Gly-Phe-Met [MET-ENK, methionine-enkephalin]”, the “Specific migration with naloxone” value in assay [2] (donor 4, stimulus at 10- " M, naloxone 10^-5 M) is 2; in assay [2] (setting [6]), 335; in assay [2] (setting [4]), 768. For the same molecule, the “Specific migration without naloxone” value was 830 in assay [2] (donor 4, stimulus at 10- " M) and 3,093 in assay [2] (donor 5, stimulus at 10^-5 M). Also, the “Effect of naloxone on specific migration (percent response)” value in assay [2] (setting [6]) was found to be 12.8%; in assay [2] (setting [4]), 24.8%. In addition, in assay [1] (setting [5]), the “type of locomotion stimulated” value was “chemotactic”.
In the case of [D-Ser2Leu']- enkephalin Thb [DSLET], the “T cell migration response compared with spontaneous locomotion” value in assay [3] is on record as “greater then spon- taneous locomotion”.
In the case of (D-Ala2, o- Leu']-enkephalin [DADLE], the “T cell migration response compared with spontaneous locomotion” value in assay [3] is reported as “greater then spon- taneous locomotion”.
On the same count and under the same terms, as for “[o-Ala2 ,MePhe4,Gly(ol)'j-enkephalin [DAGO]”, the entry is “greater then spon- taneous locomotion”.
Consider `C=CCN1CC[C@]23c4c5ccc(O)c4O[C@H]2C(=O)CC[C@@]3(O)[C@H]1C5` [naloxone, Naloxone], for which the “effect of naloxone on locomotion caused by IL-2” value in assay [2] (naloxone 10^-5 M, cells pretreated 15 h at 37C, IL-2 100 U/ml, Table 1) is listed as “no effect”. Also, the “effect of naloxone on T cell migration in response to MET-ENK or LEU-ENK” value in assay [2] (naloxone 10^-5 M, cells pretreated 15 h at 37C, Table 1) was “inhibited”.
Regarding H-Gly-Gly-Phe-Leu-OH [DesTyr-LEU-ENK], the “T cell migration response compared with spontaneous locomotion” value in assay [3] is listed as “no effect on T cell migration”.
Same read-out and setting: then “cyclic [p-Pen2,n-Pen']-enkephalin [DPDPE]”, with “greater then spon- taneous locomotion”.
